US20110038952A1, “GAMBOGIC ACID GLYCOSIDE DERIVATIVES AND ANALOGS, THEIR PREPARATION METHODS AND APPLICATIONS” (priority 2007, published 2011)

Experiments:
[1] = test system: human colorectal cancer cell line HT29; test: In vitro anti-cancer cell experiment (MTT), HT29; type: cell-based; conditions: for IC50 (50% inhibition of cell viability, MTT): HT29, P<0.05
Protocol: (§1) a. Cell lines: Human pancreatic cancer cell line Panc-1, human colorectal cancer cell line HT29 and human lung cancer cell line NCI-H460; the medium: s DMEM (Gibco BRL), containing 10% fetal calf serum (Gibco BRL) and 2 mM L-glutamine (Gibco BRL).
(§2) b. Test samples: example compounds 3, 18, 25 and 27.
(§3) The samples were dissolved in dimethyl sulfoxide (DMSO, Sigma, United States) and medium was added to the final concentration of 0.5%. Cisplatin was as positive control of (CDDP, purity 96%, from Kunming Institute of Precious Metals).
(§4) c. Method: cells were digested with trypsin and dispersed into single cells in the medium containing penicillin (25 U/ml) and streptomycin (25 μg/ml). The cells were seeded in 96-well culture plates (Corning Incorporated), at 37° C., in a humidified atmosphere with 5% CO2 present for 24 hours. The culture medium was removed, […] test compounds were added, cultured for 48 hours. Culture medium was removed and […] (MTT, USA Sigma products) was added. The result was assayed by SK601-based microplate reader (Japan Seikagaku company's products), 570 nm/630 nm optical density (OD).
(§5) Calculation of cell viability: (Experimental group OD/control OD)×100%; Positive control CDDP was treated in the same way.

mice sarcoma S180 = test: Growth inhibition of S180 sarcoma in mice; type: in vivo
Description: (§6) Test samples: example compounds 18, 24, 25, 26 and 27
(§7) Test animals: Kunming kinds of healthy mice (19-21 g), 10 mice (5 male and 5 female)/group, from Beijing Institute of Military Medical Sciences Animal Center.
(§8) Tumor strains: mice sarcoma S180 for ascites passaged from Beijing Academy of Military Medical Institute of Pharmacology.
(§9) Xenografts cultured S180 tumor cells were implanted subcutaneously into the flank region of mice and tumors were allowed to grow to the desired average size of 100 mg. The mice were randomized into control and treatment groups with 10 mice per group. The control group was injected with the vehicle used to dissolve the drug. Other groups received the test compounds (example compound 18, 24, 25, 26 and 27) and positive group, cyclophosphamide (CTX) and 5-fluorouracil (5-FU) at the dose and schedule as indicated in Table VI. Injections were I.V. via the tail vein.

[2] = Body weight of mice in the S180 sarcoma study
Description: as §6, §7, §8, §9

[3] = test system: human lung cancer cell line NCI-H460; test: In vitro anti-cancer cell experiment (MTT), NCI-H460; type: cell-based; conditions: NCI-H460, P<0.05
Protocol: as §1, §2, §3, §4, §5

[4] = test system: Human pancreatic cancer cell line Panc-1; test: In vitro anti-cancer cell experiment (MTT), Panc-1; type: cell-based
Protocol: as §1, §2, §3, §4, §5

[5] = Chronic toxicity, 30 days, mice
Protocol: Animals were given an injection in the tail vein with approximately 100 μl volume of compound formulation or vehicle formulation. Mice body weights were measured daily along with daily observation for 30 days.
(1) The general behavior, body weight and organ weight of animal.
(2) Blood test: white blood cells (WB), red blood cells (RB), hemoglobin (Hb), alanine aminotransferase (ALT), aspartate aminotransferase (AST), alkaline phosphatase (ALP), serum uric acid (UA), blood urea (UREA) and creatinine (Cr).
(3) Pathological examination: heart, liver, spleen, lung and kidney.

[6] = S180 mice, I.V. tail vein, 1 mg/kg
[7] = S180 mice, I.V. tail vein, 2 mg/kg
[8] = S180 mice, I.V. tail vein, 4 mg/kg
[9] = S180 mice, 24 one dose, 25 three doses, 26 three doses, 27 one dose
[10] = S180 mice, I.V. tail vein, 25 mg/kg
[11] = S180 mice, I.V. tail vein, 15 mg/kg
[12] = S180 mice, I.V. tail vein, 5 mg/kg
[13] = S180 mice, I.V. tail vein, 10 mg/kg
[14] = S180 mice, I.V. tail vein, 8 mg/kg
[15] = S180 mice, I.V. tail vein, 12 mg/kg
[16] = mice, tail vein, 2, 4 and 8 mg/kg, 30 days, vs control group

9,10-Dihydro-10-(N-methyl-1-naphthoylamino) gambogyl (N-methyl)-1-naphthoylamine [Example 25]
IC50 (50% inhibition of cell viability, MTT) [1]: 3.75 µg/mL | Inhibition rate (%) (mice sarcoma S180; [6]): 44.6% | Tumor weight (mice sarcoma S180; [6]): 1.34 ± 0.47 g | Inhibition rate (%) (mice sarcoma S180; [7]): 58.3% | Tumor weight (mice sarcoma S180; [7]): 1.00 ± 0.34 g | Inhibition rate (%) (mice sarcoma S180; [8]): 65.2% | Tumor weight (mice sarcoma S180; [8]): 0.84 ± 0.35 g | anti-tumor efficacy (in vivo), statistical significance (mice sarcoma S180; [9]): statistically significant | body weight/g After ad. ([2]; mouse, in vivo, iv, 1 mg/kg): 24.75 ± 2.56 g | body weight/g Before ad. ([2]; mouse, in vivo, iv, 1 mg/kg): 22.59 ± 1.36 g | body weight/g Without tumor ([2]; mouse, in vivo, iv, 1 mg/kg): 23.27 ± 2.16 g | body weight/g After ad. ([2]; mouse, in vivo, iv, 2 mg/kg): 22.75 ± 3.51 g | body weight/g Before ad. ([2]; mouse, in vivo, iv, 2 mg/kg): 22.36 ± 1.30 g | body weight/g Without tumor ([2]; mouse, in vivo, iv, 2 mg/kg): 21.69 ± 3.13 g | body weight/g After ad. ([2]; mouse, in vivo, iv, 4 mg/kg): 21.47 ± 3.69 g | body weight/g Before ad. ([2]; mouse, in vivo, iv, 4 mg/kg): 22.38 ± 1.80 g | body weight/g Without tumor ([2]; mouse, in vivo, iv, 4 mg/kg): 20.77 ± 3.37 g

O=P1(N(CCCl)CCCl)NCCCO1 (centres unmarked) [CTX, cyclophosphamide, reference compound]
Inhibition rate (%) (mice sarcoma S180; [10]): 48.6% | Tumor weight (mice sarcoma S180; [10]): 1.24 ± 0.50 g | body weight/g Without tumor [2, 10]: 23.94 ± 2.60 g | body weight/g After ad. ([2]; S180 mice, I.V. tail vein, 25 mg/kg, after administration): 25.44 ± 2.92 g | body weight/g Before ad. ([2]; S180 mice, I.V. tail vein, 25 mg/kg, before administration): 22.64 ± 1.28 g

CC(C)=CCCC1(C)C=Cc2c(O)c3c(c(CC=C(C)C)c2O1)OC12C(=C[C@H]4CC1C(C)(C)OC2(C/C=C(/C)C(=O)OCCO)C4=O)C3=O (some centres unmarked) [Example 3, Ethylene Glycol Gambogate]
IC50 (the compound concentration producing 50% inhibition of colony formation) on NCI-H460 [3]: 6.18 µg/mL | IC50 (the compound concentration producing 50% inhibition of colony formation) on Panc-1 ([4]; Panc-1, P<0.05): 23.4 µg/mL

O=c1[nH]cc(F)c(=O)[nH]1 [Example 5-FU, 5-fluorouracil, reference compound]
IC50 ([1]; Homo sapiens, HT-29, HT29, 48 hours, MTT, second of two HT29 columns): 92.3 µM | IC50 ([4]; Homo sapiens, Panc-1, 48 hours, MTT): 193 µM | Inhibition rate (%) (mice sarcoma S180; [11]): 43.2% | Tumor weight (mice sarcoma S180; [11]): 1.37 ± .033 g | body weight/g After ad. ([2]; mouse, in vivo, iv, 15 mg/kg): 28.66 ± 2.89 g | body weight/g Before ad. ([2]; mouse, in vivo, iv, 15 mg/kg): 23.07 ± 1.75 g | body weight/g Without tumor ([2]; mouse, in vivo, iv, 15 mg/kg): 27.19 ± 2.88 g

CCCCCN(CCCCC)C(=O)/C(C)=C\CC12OC(C)(C)C3C[C@H](C=C4C(=O)c5c(O)c6c(c(CC=C(C)C)c5OC431)OC(C)(CCC=C(C)C)C=C6)C2=O (some centres unmarked) [Example 18, Gambogyl Dipentylamine]
IC50 (the compound concentration producing 50% inhibition of colony formation) on NCI-H460 [3]: 4.73 µg/mL | Inhibition rate (%) (mice sarcoma S180; [12]): 40.3% | Tumor weight (mice sarcoma S180; [12]): 1.44 ± 0.39 g | Inhibition rate (%) (mice sarcoma S180; [13]): 52.5% | Tumor weight (mice sarcoma S180; [13]): 1.14 ± 0.42 g | body weight/g After ad. ([2]; mouse, in vivo, iv, 5 mg/kg): 27.91 ± 4.08 g | body weight/g Before ad. ([2]; mouse, in vivo, iv, 5 mg/kg): 22.80 ± 1.73 g | body weight/g Without tumor ([2]; mouse, in vivo, iv, 5 mg/kg): 26.49 ± 4.62 g | body weight/g After ad. ([2]; mouse, in vivo, iv, 10 mg/kg): 26.08 ± 2.8 g | body weight/g Before ad. ([2]; mouse, in vivo, iv, 10 mg/kg): 27.32 ± 2.2 g | body weight/g Without tumor ([2]; mouse, in vivo, iv, 10 mg/kg): 25.06 ± 2.09 g

COC(=O)/C(C)=C\CC12OC(C)(C)C3C[C@H](C=C4C(=O)c5c(OC6O[C@H](CO)[C@@H](O)[C@@H](O)[C@H]6O)c6c(c(CC=C(C)C)c5OC431)OC(C)(CCC=C(C)C)C=C6)C2=O (stereo partly drawn) [Example 24, Methyl-6-O-D-allosyl gambogate]
Inhibition rate (%) (mice sarcoma S180; [13]): 61.0% | Tumor weight (mice sarcoma S180; [13]): 0.94 ± 0.26 g | anti-tumor efficacy (in vivo), statistical significance (mice sarcoma S180; [9]): statistically significant | body weight/g After ad. ([2]; mouse, in vivo, iv, 10 mg/kg): 19.77 ± 1.88 g | body weight/g Before ad. ([2]; mouse, in vivo, iv, 10 mg/kg): 21.67 ± 1.26 g | body weight/g Without tumor ([2]; mouse, in vivo, iv, 10 mg/kg): 18.89 ± 1.45 g

COC(=O)/C(C)=C\CC12OC(C)(C)C3C[C@H](C=C4C(=O)c5c(OC(=O)c6ccc(OC7O[C@H](CO)[C@@H](O)[C@@H](O)[C@H]7O)cc6)c6c(c(CC=C(C)C)c5OC431)OC(C)(CCC=C(C)C)C=C6)C2=O (stereo partly drawn) [Example 26, Methyl-6-(4-O-D-allosyl)benzoyl gambogate]
Inhibition rate (%) (mice sarcoma S180; [8]): 53.7% | Tumor weight (mice sarcoma S180; [8]): 1.12 ± 0.40 g | Inhibition rate (%) (mice sarcoma S180; [14]): 60.2% | Tumor weight (mice sarcoma S180; [14]): 0.96 ± 0.32 g | Inhibition rate (%) (mice sarcoma S180; [15]): 69.3% | Tumor weight (mice sarcoma S180; [15]): 0.74 ± 0.11 g | anti-tumor efficacy (in vivo), statistical significance (mice sarcoma S180; [9]): statistically significant | body weight/g After ad. ([2]; mouse, in vivo, iv, 4 mg/kg): 23.71 ± 3.85 g | body weight/g Before ad. ([2]; mouse, in vivo, iv, 4 mg/kg): 25.89 ± 2.62 g | body weight/g Without tumor ([2]; mouse, in vivo, iv, 4 mg/kg): 22.54 ± 3.42 g | body weight/g After ad. ([2]; mouse, in vivo, iv, 8 mg/kg): 21.42 ± 0.88 g | body weight/g Before ad. ([2]; mouse, in vivo, iv, 8 mg/kg): 24.41 ± 2.28 g | body weight/g Without tumor ([2]; mouse, in vivo, iv, 8 mg/kg): 20.56 ± 0.54 g | body weight/g After ad. ([2]; mouse, in vivo, iv, 12 mg/kg): 26.71 ± 5.56 g | body weight/g Before ad. ([2]; mouse, in vivo, iv, 12 mg/kg): 25.58 ± 2.48 g | body weight/g Without tumor ([2]; mouse, in vivo, iv, 12 mg/kg): 26.07 ± 5.40 g | alanine aminotransferase (ALT) ([5]; high dose group, recovery to normal level): slightly incretion | Pathological examination: heart [5, 16]: no abnormal of heart tissue | Pathological examination: liver [5, 16]: no abnormal tissue in rat liver slices | Pathological examination: lung [5, 16]: no abnormal tissue in rat lung slices | Pathological examination: renal [5, 16]: no abnormal tissue in rat renal slices | Pathological examination: spleen [5, 16]: no abnormal tissue in rat spleen slices | toxic pathological changes of the heart, liver, spleen, lung and kidney ([5]; three dose mice groups, continuous administration for 30 days): no toxic pathological changes

CC(C)=CCCC1(C)C=Cc2c(c(CC=C(C)C)c3c(c2OC(=O)c2ccc(OC4O[C@H](CO)[C@@H](O)[C@@H](O)[C@H]4O)cc2)C(=O)C2=C[C@H]4CC5C(C)(C)OC(C/C=C(/C)C(=O)N(C)Cc6cccc7ccccc67)(C4=O)C25O3)O1 (stereo partly drawn) [Example 27, 6-(4-O-D-Allosylbenzoyl) gambogyl (N-methyl-1-naphthalene) methylamine]
IC50 (50% inhibition of cell viability, MTT) [1]: 1.19 µg/mL | anti-tumor efficacy (in vivo), statistical significance (mice sarcoma S180; mouse, in vivo): statistically significant | Inhibition rate (%) (mice sarcoma S180; mouse, in vivo, iv, 25 mg/kg): 32.5% | Tumor weight (mice sarcoma S180; mouse, in vivo, iv, 25 mg/kg): 1.63 ± 0.47 g | Inhibition rate (%) (mice sarcoma S180; mouse, in vivo, iv, 30 mg/kg): 37.0% | Tumor weight (mice sarcoma S180; mouse, in vivo, iv, 30 mg/kg): 1.52 ± 0.30 g | body weight/g After ad. ([2]; mouse, in vivo, iv, 25 mg/kg): 20.83 ± 1.36 g | body weight/g Before ad. ([2]; mouse, in vivo, iv, 25 mg/kg): 20.90 ± 1.06 g | body weight/g Without tumor ([2]; mouse, in vivo, iv, 25 mg/kg): 19.00 ± 1.39 g | body weight/g After ad. ([2]; mouse, in vivo, iv, 30 mg/kg): 20.22 ± 2.11 g | body weight/g Before ad. ([2]; mouse, in vivo, iv, 30 mg/kg): 19.07 ± 1.40 g | body weight/g Without tumor ([2]; mouse, in vivo, iv, 30 mg/kg): 18.67 ± 2.08 g
